Laboratory results reported in patent US20100069384A1, “5-ALKYLOXY-INDOLIN-2-ONE DERIVATIVES, PREPARATION THEREOF AND APPLICATION THEREOF IN THERAPY” (SANOFI-AVENTIS, priority 2006, published 2010).
Structures can show the parent of a compound that is named as a salt.

Tests used:
[1] = target: V1a receptors (Homo sapiens, UniProt P37288); experiment: affinity for V1a receptors (method of Thibonnier et al.); format: binding; conditions: for IC50 V1a/IC50 V2: selectivity ratio versus V2
Method: (§1) The affinity of the compounds of the invention for the Via and V1b vasopressin receptors and the affinity of the compounds of the invention for the oxytocin (OXT) receptors were also tested.
(§2) The affinity of the compounds according to the invention for human Via receptors was determined according to the method described by M. Thibonnier et al. in J. Biol. Chem. 1994, 269, 3304-3310. The affinity of the compounds according to the invention for the V1b receptors was determined according to the method described by T. Sugimoto et al. in J. Biol. Chem. 1994, 269, 27088-27092.

[2] = target: T1, V1b receptors (Homo sapiens, UniProt P47901); experiment: affinity for V1b receptors (method of Sugimoto et al.); format: binding; conditions: for IC50 V1b/IC50 V2: selectivity ratio versus V2
T1 sequence (P47901 1-424): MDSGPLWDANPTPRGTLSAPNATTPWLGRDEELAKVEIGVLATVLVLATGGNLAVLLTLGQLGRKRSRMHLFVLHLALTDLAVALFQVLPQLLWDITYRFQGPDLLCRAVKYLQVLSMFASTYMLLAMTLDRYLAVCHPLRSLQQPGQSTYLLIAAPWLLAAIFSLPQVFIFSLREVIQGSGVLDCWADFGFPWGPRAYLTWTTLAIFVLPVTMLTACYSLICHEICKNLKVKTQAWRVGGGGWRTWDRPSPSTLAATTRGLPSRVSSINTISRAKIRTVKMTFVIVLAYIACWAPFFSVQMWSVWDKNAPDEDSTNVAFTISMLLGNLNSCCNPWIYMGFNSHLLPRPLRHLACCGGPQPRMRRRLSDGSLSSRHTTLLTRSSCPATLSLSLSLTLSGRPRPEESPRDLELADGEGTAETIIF
Method: as §1, §2

[3] = target: T2, human oxytocin receptors (Homo sapiens, UniProt P30559); experiment: in vitro binding test, displacement of a radioiodated oxytocin analogue from oxytocin receptors; conditions: for IC50: membrane preparation of human oxytocin receptors; for IC50 OXT/IC50 V2: selectivity ratio versus V2
T2 sequence (P30559 1-389): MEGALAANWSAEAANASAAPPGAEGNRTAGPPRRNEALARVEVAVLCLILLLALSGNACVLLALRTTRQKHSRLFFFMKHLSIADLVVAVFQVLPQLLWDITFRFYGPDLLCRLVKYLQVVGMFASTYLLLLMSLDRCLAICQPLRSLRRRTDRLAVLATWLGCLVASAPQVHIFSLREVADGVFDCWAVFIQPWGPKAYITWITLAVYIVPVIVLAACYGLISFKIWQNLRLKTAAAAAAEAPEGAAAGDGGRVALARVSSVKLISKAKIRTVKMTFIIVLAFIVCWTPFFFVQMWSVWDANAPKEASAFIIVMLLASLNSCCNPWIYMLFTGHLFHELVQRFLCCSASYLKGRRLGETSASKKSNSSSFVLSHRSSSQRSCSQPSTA
Method: as §1
The affinity of the compounds according to the invention for the OXT receptors was determined in an in vitro binding test using the method described by J. Elands et al. in Eur. J. Pharmacol. 1987, 147, 197-207. This method comprises in vitro investigation of the displacement of a radioiodated analogue of oxytocin from the oxytocin receptors in a membrane preparation of human oxytocin receptors.

[4] = target: T3, human recombinant V2 vasopressin receptors (Homo sapiens, UniProt P30518); experiment: in vitro binding test, displacement of [H3]-AVP from V2 vasopressin receptors; conditions: CHO membranes, 3.5 nM [H3]-AVP, 45 minutes at 25° C.
T3 construct: expressed in transfected cells; host or cells: CHO
Method: The affinity of the compounds of the invention for the V2 vasopressin receptors was measured in in vitro binding tests, as described in J. Pharmacol. Exp. Ther., (2002), 300: pp. 1122-1130.
Plasma membranes (about 20 μg/ml) obtained from CHO tissue or cell line expressing human recombinant V2 vasopressin receptors, are incubated for 45 minutes at 25° C. in 200 μL of TRIS-HCl buffer (50 mM; pH 8.2) containing 2 mM of MgCl2, 1 mM of EDTA, 0.1% of BSA, 1/500 protease inhibitor cocktail (Sigma #P2714) and 3.5 nM of [H3]-AVP. The reaction is stopped by filtration and washing on GF/B filters. Nonspecific binding is determined in the presence of 1 μM of AVP. The compounds of the invention, dissolved beforehand to a concentration of 10^−2 M in DMSO, are tested in a dilution series.
For each concentration the results are expressed as percentage inhibition of specific binding. An IC50 (concentration of product inhibiting 50% of specific binding) is determined for each of the products using the in-house software Biost@t-SPEED v1.3 which employs the 4-parameter logistic model of Ratkovsky and Reedy (1986). Adjustment is obtained by nonlinear regression using Marquardt's algorithm of the SAS v8.2 software running under UNIX.

T3 sequence (P30518 whole entry): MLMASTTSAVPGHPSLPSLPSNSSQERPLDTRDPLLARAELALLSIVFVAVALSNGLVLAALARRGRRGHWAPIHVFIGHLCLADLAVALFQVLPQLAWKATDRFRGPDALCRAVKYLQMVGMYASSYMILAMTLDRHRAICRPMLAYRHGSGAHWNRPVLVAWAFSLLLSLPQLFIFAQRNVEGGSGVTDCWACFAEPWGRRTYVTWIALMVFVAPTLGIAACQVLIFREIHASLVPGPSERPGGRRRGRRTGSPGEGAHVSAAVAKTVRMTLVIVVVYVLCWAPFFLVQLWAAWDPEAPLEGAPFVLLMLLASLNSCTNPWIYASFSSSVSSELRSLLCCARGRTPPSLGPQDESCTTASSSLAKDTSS
V1a receptors, sequence (P37288 whole entry): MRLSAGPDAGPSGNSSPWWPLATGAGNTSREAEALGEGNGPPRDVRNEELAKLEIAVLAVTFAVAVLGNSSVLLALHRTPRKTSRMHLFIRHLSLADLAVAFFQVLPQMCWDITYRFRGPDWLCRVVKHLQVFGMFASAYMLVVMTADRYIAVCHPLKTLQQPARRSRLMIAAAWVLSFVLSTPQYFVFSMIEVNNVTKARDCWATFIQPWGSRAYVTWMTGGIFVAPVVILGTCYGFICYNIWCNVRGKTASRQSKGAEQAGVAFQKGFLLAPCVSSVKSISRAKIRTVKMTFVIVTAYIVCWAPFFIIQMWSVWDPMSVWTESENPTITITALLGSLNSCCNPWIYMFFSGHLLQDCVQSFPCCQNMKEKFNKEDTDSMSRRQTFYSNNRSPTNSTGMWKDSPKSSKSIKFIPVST

| Compound | IC50 [1] | IC50 V1a/IC50 V2 [1] | IC50 [2] | IC50 V1b/IC50 V2 [2] | IC50 [3] | IC50 OXT/IC50 V2 [3] | melting point | IC50 [4] |
| --- | --- | --- | --- | --- | --- | --- | --- | --- |
| CCNC(=O)c1ccc(Cl)c(C2(C)C(=O)N(S(=O)(=O)c3ccc(C(=O)NC(C)(C)C)cc3OC)c3ccc(OCC)cc32)c1 (stereo not shown) [Example 21, 4-chloro-3-[1-(4-tert-butylcarbamoyl-2-methoxybenzenesulphonyl)-5-ethoxy-3-methyl-2-oxo-2,3-dihydro-1H-indol-3-yl]-N-ethylbenzamide] | 340 nM | >100 | > 1000 nM | >100 | > 1000 nM | >100 | 176 °C | 3 nM |
| CCOc1ccc2c(c1)C(C)(c1cc(C(=O)N3CC4CCN(C)C4C3)ccc1Cl)C(=O)N2S(=O)(=O)c1ccc(C(=O)NC(C)(C)C)cc1OC (stereo not shown) [Example 46, N-tert-Butyl-4-{3-[2-chloro-5-(1-methyl-hexahydro-pyrrolo[3,4-b]pyrrole-5-carbonyl)-phenyl]-5-ethoxy-3-methyl-2-oxo-2,3-dihydro-indole-1-sulphonyl}-3-methoxy-benzamide] | – | – | – | – | – | – | 130 °C | – |
| CCOc1ccc2c(c1)C(C)(c1cc(N)ccc1Cl)C(=O)N2S(=O)(=O)c1ccc(C(=O)NC(C)(C)C)cc1OC (stereo not shown) [Example 55, 4-[3-(5-Amino-2-chloro-phenyl)-5-ethoxy-3-methyl-2-oxo-2,3-dihydro-indole-1-sulphonyl]-N-tert-butyl-3-methoxy-benzamide] | – | – | – | – | – | – | 166 °C | – |
| CCOc1ccc2c(c1)C(C)(c1cc(C(=O)NCCN3CCOCC3)ccc1Cl)C(=O)N2S(=O)(=O)c1ccc(C(=O)NC(C)(C)C)cc1OC (stereo not shown) [Example 36, 4-chloro-3-[1-(4-tert-butylcarbamoyl-2-methoxybenzenesulphonyl)-5-ethoxy-3-methyl-2-oxo-2,3-dihydro-1H-indol-3-yl]-N-(2-morpholin-4-ylethyl)benzamide] | > 1000 nM | >100 | > 1000 nM | >100 | 350 nM | 67 | 124 °C | 5.2 nM |
| CCOc1ccc2c(c1)C(C)(c1cc(C(=O)O)ccc1Cl)C(=O)N2S(=O)(=O)c1ccc(C(=O)NC(C)(C)C)cc1 (stereo not shown) [Example 48, 3-[1-(4-tert-Butylcarbamoyl-benzenesulphonyl)-5-ethoxy-3-methyl-2-oxo-2,3-dihydro-1H-indol-3-yl]-4-chloro-benzoic acid] | – | – | – | – | – | – | 188 °C | – |
| CCOc1ccc2c(c1)C(C)(c1ccccc1Cl)C(=O)N2S(=O)(=O)c1ccc(C(=O)NC(C)(C)CC)cc1 (stereo not shown) [Example 4, 4-[3-(2-Chloro-phenyl)-5-ethoxy-3-methyl-2-oxo-2,3-dihydro-indole-1-sulphonyl]-N-(1,1-dimethyl-propyl)-benzamide] | – | – | – | – | – | – | 138 °C | – |
| CCOc1ccc2c(c1)C(C)(c1cc(C(=O)O)ccc1Cl)C(=O)N2S(=O)(=O)c1ccc(C(=O)NC(C)(C)C)cc1OC (stereo not shown) [Example 19, 3-[1-(4-tert-Butylcarbamoyl-2-methoxy-benzenesulphonyl)-5-ethoxy-3-methyl-2-oxo-2,3-dihydro-1H-indol-3-yl]-4-chloro-benzoic acid] | – | – | – | – | – | – | 200 °C | – |
| CCOc1ccc2c(c1)C(C)(c1cc(C(=O)NCCN)ccc1Cl)C(=O)N2S(=O)(=O)c1ccc(C(=O)NC(C)(C)C)cc1OC (stereo not shown) (as salt: hydrochloride) [Example 47, N-tert-Butyl-4-{3-[2-chloro-5-(2-aminoethylamino-carbonyl)-phenyl]-5-ethoxy-3-methyl-2-oxo-2,3-dihydro-indole-1-sulphonyl}-3-methoxy-benzamide] | – | – | – | – | – | – | 204 °C | – |

More lines, now with the values ahead:

| IC50 [1] | IC50 V1a/IC50 V2 [1] | IC50 [2] | IC50 V1b/IC50 V2 [2] | IC50 [3] | IC50 OXT/IC50 V2 [3] | melting point | IC50 [4] | Compound |
| --- | --- | --- | --- | --- | --- | --- | --- | --- |
| > 1000 nM | >100 | 940 nM | >100 | 390 nM | >100 | 152 °C | 1.3 nM | CCOc1ccc2c(c1)C(C)(c1ccccc1Cl)C(=O)N2S(=O)(=O)c1ccc(C(=O)NC(C)(C)CO)cc1 (stereo not shown) [Example 72, 4-[3-(2-chlorophenyl)-5-ethoxy-3-methyl-2-oxo-2,3-dihydroindole-1-sulphonyl]-N-(2-hydroxy-1,1-dimethylethyl)benzamide] |
| – | – | – | – | – | – | 89 °C | – | CCOc1ccc2c(c1)C(C)(c1ccccc1)C(=O)N2S(=O)(=O)c1ccc(C(=O)NC(C)(C)C)cc1 (stereo not shown) [Example 98, N-tert-butyl-4-[3-methyl-3-phenyl-5-ethoxy-2-oxo-2,3-dihydroindole-1-sulphonyl]-benzamide] |
| – | – | – | – | – | – | 101 °C | – | CCOc1ccc2c(c1)C(C)(c1cccc(OC)c1)C(=O)N2S(=O)(=O)c1ccc(C(=O)NC(C)(C)C)cc1 (stereo not shown) [Example 103, N-tert-butyl-4-[3-(3-methoxyphenyl)-5-ethoxy-3-methyl-2-oxo-2,3-dihydroindole-1-sulphonyl]benzamide] |
| 260 nM | >100 | > 1000 nM | >100 | 700 nM | >100 | 148 °C | 1 nM | CCOc1ccc2c(c1)C(C)(c1ccccc1)C(=O)N2S(=O)(=O)c1ccc(C(=O)NC(C)(C)C)cc1OC (single isomer, unassigned) [Example 99, N-tert-butyl-3-methoxy-4-[3-methyl-3-phenyl-5-ethoxy-2-oxo-2,3-dihydroindole-1-sulphonyl]benzamide] |
| – | – | – | – | – | – | 128 °C | – | CCOc1ccc2c(c1)C(C)(c1c(F)cccc1Cl)C(=O)N2S(=O)(=O)c1ccc(C(=O)NC(C)(C)C)cc1 (stereo not shown) [Example 125, N-tert-butyl-4-[3-methyl-3-(2-chloro-6-fluorophenyl)-5-ethoxy-2-oxo-2,3-dihydro-indole-1-sulphonyl]benzamide] |
| 310 nM | >100 | > 1000 nM | >100 | 130 nM | 50 | 166 °C | 2.6 nM | COc1cc(C(=O)NC(C)(C)C)ccc1S(=O)(=O)N1C(=O)C(C)(c2ccccc2Cl)c2cc(O)ccc21 (stereo not shown) [Example 144] |
| – | – | – | – | – | – | 86 °C | – | CCOc1ccc2c(c1)C(C)(c1cccc(OCCCN(C)C)c1)C(=O)N2S(=O)(=O)c1ccc(C(=O)NC(C)(C)C)cc1 (stereo not shown) [Example 145, N-tert-Butyl-4-{3-[3-(3-dimethylaminopropoxy)phenyl]-5-ethoxy-3-methyl-2-oxo-2,3-dihydroindole-1-sulphonyl}benzamide] |
| – | – | – | – | – | – | 134 °C | – | CC(C)(C)NC(=O)c1ccc(S(=O)(=O)N2C(=O)C(C)(c3ccccc3Cl)c3cc(OCC(F)(F)F)ccc32)cc1 (stereo not shown) [Example 143, N-tert-Butyl-4-[3-(2-chlorophenyl)-3-methyl-2-oxo-5-(2,2,2-trifluoroethoxy)-2,3-di-hydroindole-1-sulphonyl]benzamide] |
| – | – | – | – | – | – | 116 °C | – | CCOc1ccc2c(c1)C(C)(c1ccccc1F)C(=O)N2S(=O)(=O)c1ccc(C(=O)NC(C)(C)C)cc1 (stereo not shown) [Example 101, N-tert-butyl-4-[3-methyl-3-(2-fluorophenyl)-5-ethoxy-2-oxo-2,3-dihydroindole-1-sulphonyl]benzamide] |
